The record followed here is patent US20090035353A1 (priority 2001, published 2009).

What all share (assay type): cell-based, Staphylococcus aureus
Test [1] deals with production of TSST-1 by S. aureus (MN8).
In test [2] the test system is TSST-1 production by S. aureus FRI-1169.
In test [3] the test system is TSST-1 production by S. aureus FRI-1187.

“4-hydroxydiphenyl methane [4-Hydroxydiphenyl-methane]”: the “ELISA: TSST-1 ng/OD unit” value in test [1] is on record as 785.

Consider `Oc1c(Cl)cc(Cl)c(Cl)c1Cc1c(O)c(Cl)cc(Cl)c1Cl` [Hexachlorophene, hexachlorophene], for which, in test [1], the “ELISA: TSST-1 ng/OD unit” value stood at 330 and the “TSST-1 produced when compared to the control” value is “significantly less TSST-1”.

As to `Oc1cc(Cl)ccc1Oc1ccc(Cl)cc1Cl` [Triclosan, triclosan], the “ELISA: TSST-1 ng/OD unit” value is reported as 129 in test [1], 40 in test [2] and 95 in test [3]. The “TSST-1 produced when compared to the control” value is “significantly less TSST-1” in test [1], “less TSST-1” in test [2] and “less TSST-1” in test [3].
